Source: ChEMBL document CHEMBL3885881, “DrugMatrix”

Species: Rattus norvegicus
Experiment: DrugMatrix - Regimen: Daily Repeat
Type: toxicity, organism-based, Sprague-Dawley
Set-up: regimen Daily Repeat, gender Male, age 6-8 weeks
Conditions: in vivo, po, route oral GAVAGE, vehicle .5 % CMC; for ABSOLUTE BASOPHIL / ABSOLUTE EOSINOPHIL / ABSOLUTE LYMPHOCYTE / ABSOLUTE MONOCYTE / ABSOLUTE SEGMENTED NEUTROPHIL / BASOPHIL / EOSINOPHIL / ERYTHROCYTE COUNT / HEMATOCRIT / HEMOGLOBIN / LEUKOCYTE COUNT / LYMPHOCYTE / MEAN CORPUSCULAR HEMOGLOBIN / MEAN CORPUSCULAR HEMOGLOBIN CONCENTRATION / MONOCYTE / NEUTROPHIL / NUCLEATED RED BLOOD CELLS / PLATELET COUNT: tissue Blood; for ALANINE AMINOTRANSFERASE / ALBUMIN / ALKALINE PHOSPHATASE / ASPARTATE AMINOTRANSFERASE / BLOOD UREA NITROGEN / CARBON DIOXIDE / CHLORIDE / CHOLESTEROL / CREATINE PHOSPHOKINASE / CREATININE / GLUCOSE / LACTATE DEHYDROGENASE / LIPASE / PHOSPHORUS / POTASSIUM / SODIUM / TOTAL BILIRUBIN / TOTAL PROTEIN / URIC ACID: tissue Plasma
[1] = 0 mg/kg, 72 h, dose level Control, time 3 day
[2] = 0 mg/kg, 120 h, dose level Control, time 5 day
[3] = 1100 mg/kg, 72 h, dose level High, time 3 day
[4] = 1100 mg/kg, 120 h, dose level High, time 5 day

## C[C@H]1[C@H](NC(=O)/C(=N\OC(C)(C)C(=O)O)c2csc(N)n2)C(=O)N1S(=O)(=O)O [AZTREONAM]
[1]
  ABSOLUTE BASOPHIL: 0 CELLS/uL
  ABSOLUTE EOSINOPHIL: 222.83 CELLS/uL
  ABSOLUTE LYMPHOCYTE: 14453 CELLS/uL
  ABSOLUTE MONOCYTE: 0 CELLS/uL
  ABSOLUTE SEGMENTED NEUTROPHIL: 1490.83 CELLS/uL
  BASOPHIL: 0%
  EOSINOPHIL: 1.33%
  ERYTHROCYTE COUNT: 5.76 x10E6/uL
  HEMATOCRIT: 36.52%
  HEMOGLOBIN: 13.45 G/DL
  LEUKOCYTE COUNT: 16.17 x10E3/uL
  LYMPHOCYTE: 89.33%
  MEAN CORPUSCULAR HEMOGLOBIN: 23.37 pg
  MEAN CORPUSCULAR HEMOGLOBIN CONCENTRATION: 36.85 G/DL
  MONOCYTE: 0%
  NEUTROPHIL: 9.33%
  NUCLEATED RED BLOOD CELLS: 0 /100WBC
  PLATELET COUNT: 1239.5 x10E3/uL
  ALANINE AMINOTRANSFERASE: 43.83 u/L
  ALBUMIN: 4.27 G/DL
  ALKALINE PHOSPHATASE: 398.83 u/L
  ASPARTATE AMINOTRANSFERASE: 81.17 u/L
  BLOOD UREA NITROGEN: 17.67 mg/dL
  CARBON DIOXIDE: 27.5 mmol/L
  CHLORIDE: 99.17 MEQ/L
  CHOLESTEROL: 74 mg/dL
  CREATINE PHOSPHOKINASE: 331.5 u/L
  CREATININE: 0.2 mg/dL
  GLUCOSE: 171.33 mg/dL
  LACTATE DEHYDROGENASE: 241.67 u/L
  LIPASE: 9.5 u/L
  PHOSPHORUS: 12.25 mg/dL
  POTASSIUM: 6.33 MEQ/L
  SODIUM: 141.28 MEQ/L
  TOTAL BILIRUBIN: 0.15 mg/dL
  TOTAL PROTEIN: 5.98 G/DL
  URIC ACID: 1.63 mg/dL
[2]
  ABSOLUTE BASOPHIL: 0 CELLS/uL
  ABSOLUTE EOSINOPHIL: 148.67 CELLS/uL
  ABSOLUTE LYMPHOCYTE: 16020.5 CELLS/uL
  ABSOLUTE MONOCYTE: 29.17 CELLS/uL
  ABSOLUTE SEGMENTED NEUTROPHIL: 1468.33 CELLS/uL
  BASOPHIL: 0%
  EOSINOPHIL: 1%
  ERYTHROCYTE COUNT: 5.78 x10E6/uL
  HEMATOCRIT: 35.77%
  HEMOGLOBIN: 13.4 G/DL
  LEUKOCYTE COUNT: 17.67 x10E3/uL
  LYMPHOCYTE: 90.5%
  MEAN CORPUSCULAR HEMOGLOBIN: 23.22 pg
  MEAN CORPUSCULAR HEMOGLOBIN CONCENTRATION: 37.47 G/DL
  MONOCYTE: 0.17%
  NEUTROPHIL: 8.33%
  NUCLEATED RED BLOOD CELLS: 0.17 /100WBC
  PLATELET COUNT: 1255.5 x10E3/uL
  ALANINE AMINOTRANSFERASE: 46.5 u/L
  ALBUMIN: 4.38 G/DL
  ALKALINE PHOSPHATASE: 336 u/L
  ASPARTATE AMINOTRANSFERASE: 76.5 u/L
  BLOOD UREA NITROGEN: 20 mg/dL
  CARBON DIOXIDE: 27.5 mmol/L
  CHLORIDE: 101 MEQ/L
  CHOLESTEROL: 71.33 mg/dL
  CREATINE PHOSPHOKINASE: 231.83 u/L
  CREATININE: 0.37 mg/dL
  GLUCOSE: 168.83 mg/dL
  LACTATE DEHYDROGENASE: 174 u/L
  LIPASE: 8.67 u/L
  PHOSPHORUS: 11.48 mg/dL
  POTASSIUM: 6.82 MEQ/L
  SODIUM: 143.8 MEQ/L
  TOTAL BILIRUBIN: 0.2 mg/dL
  TOTAL PROTEIN: 5.98 G/DL
  URIC ACID: 1.83 mg/dL
[3]
  ABSOLUTE BASOPHIL: 0 CELLS/uL
  ABSOLUTE EOSINOPHIL: 113.67 CELLS/uL
  ABSOLUTE LYMPHOCYTE: 10636 CELLS/uL
  ABSOLUTE MONOCYTE: 74.67 CELLS/uL
  ABSOLUTE SEGMENTED NEUTROPHIL: 842.33 CELLS/uL
  BASOPHIL: 0%
  EOSINOPHIL: 1%
  ERYTHROCYTE COUNT: 5.33 x10E6/uL
  HEMATOCRIT: 34.77%
  HEMOGLOBIN: 12.97 G/DL
  LEUKOCYTE COUNT: 11.67 x10E3/uL
  LYMPHOCYTE: 91%
  MEAN CORPUSCULAR HEMOGLOBIN: 24.4 pg
  MEAN CORPUSCULAR HEMOGLOBIN CONCENTRATION: 37.3 G/DL
  MONOCYTE: 0.67%
  NEUTROPHIL: 7.33%
  NUCLEATED RED BLOOD CELLS: 0 /100WBC
  PLATELET COUNT: 1394 x10E3/uL
  ALANINE AMINOTRANSFERASE: 52 u/L
  ALBUMIN: 4.03 G/DL
  ALKALINE PHOSPHATASE: 364.67 u/L
  ASPARTATE AMINOTRANSFERASE: 79 u/L
  BLOOD UREA NITROGEN: 16.33 mg/dL
  CARBON DIOXIDE: 27 mmol/L
  CHLORIDE: 100.33 MEQ/L
  CHOLESTEROL: 72 mg/dL
  CREATINE PHOSPHOKINASE: 274.33 u/L
  CREATININE: 0.18 mg/dL
  GLUCOSE: 167.67 mg/dL
  LACTATE DEHYDROGENASE: 74.33 u/L
  LIPASE: 8.67 u/L
  PHOSPHORUS: 11.13 mg/dL
  POTASSIUM: 5.8 MEQ/L
  SODIUM: 142.4 MEQ/L
  TOTAL BILIRUBIN: 0.17 mg/dL
  TOTAL PROTEIN: 5.53 G/DL
  URIC ACID: 1.6 mg/dL
[4]
  ABSOLUTE BASOPHIL: 0 CELLS/uL
  ABSOLUTE EOSINOPHIL: 309 CELLS/uL
  ABSOLUTE LYMPHOCYTE: 13777 CELLS/uL
  ABSOLUTE MONOCYTE: 0 CELLS/uL
  ABSOLUTE SEGMENTED NEUTROPHIL: 1914 CELLS/uL
  BASOPHIL: 0%
  EOSINOPHIL: 1.67%
  ERYTHROCYTE COUNT: 5.78 x10E6/uL
  HEMATOCRIT: 35.83%
  HEMOGLOBIN: 13.5 G/DL
  LEUKOCYTE COUNT: 16 x10E3/uL
  LYMPHOCYTE: 87%
  MEAN CORPUSCULAR HEMOGLOBIN: 23.37 pg
  MEAN CORPUSCULAR HEMOGLOBIN CONCENTRATION: 37.7 G/DL
  MONOCYTE: 0%
  NEUTROPHIL: 11.33%
  NUCLEATED RED BLOOD CELLS: 0.33 /100WBC
  PLATELET COUNT: 1184.33 x10E3/uL
  ALANINE AMINOTRANSFERASE: 47.67 u/L
  ALBUMIN: 4.5 G/DL
  ALKALINE PHOSPHATASE: 346 u/L
  ASPARTATE AMINOTRANSFERASE: 72 u/L
  BLOOD UREA NITROGEN: 16 mg/dL
  CARBON DIOXIDE: 27 mmol/L
  CHLORIDE: 102.33 MEQ/L
  CHOLESTEROL: 65 mg/dL
  CREATINE PHOSPHOKINASE: 183.33 u/L
  CREATININE: 0.2 mg/dL
  GLUCOSE: 176.67 mg/dL
  LACTATE DEHYDROGENASE: 90 u/L
  LIPASE: 9.33 u/L
  PHOSPHORUS: 11.4 mg/dL
  POTASSIUM: 6.11 MEQ/L
  SODIUM: 146.47 MEQ/L
  TOTAL BILIRUBIN: 0.13 mg/dL
  TOTAL PROTEIN: 6 G/DL
  URIC ACID: 1.7 mg/dL
